Laboratory results reported in PubChem BioAssay (NCI).
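48-hour exposure; five concentrations; linearly interpolated endpoints. TGI: concentration producing complete growth inhibition.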

How the values were obtained:
Experiment in all cases: inhibition of tumour cell growth, NCI panel, 48 h
CCRF-CEM leukemia = system: CCRF-CEM leukemia
UO-31 renal = system: UO-31 renal
UACC-257 melanoma = system: UACC-257 melanoma
U251 CNS = system: U251 CNS
BT-549 breast = system: BT-549 breast
OVCAR-3 ovarian = system: OVCAR-3 ovarian
NCI-H226 lung = system: NCI-H226 lung
SW-620 colon = system: SW-620 colon
TK-10 renal = system: TK-10 renal
MCF7 breast = system: MCF7 breast
HCT-116 colon = system: HCT-116 colon
RXF 393 renal = system: RXF 393 renal
A549 NSCLC = system: A549 NSCLC
OVCAR-8 ovarian = system: OVCAR-8 ovarian
SK-OV-3 ovarian = system: SK-OV-3 ovarian
EKVX NSCLC = system: EKVX NSCLC
SF-295 CNS = system: SF-295 CNS
K-562 leukemia = system: K-562 leukemia
HCT-15 colon = system: HCT-15 colon
SK-MEL-5 melanoma = system: SK-MEL-5 melanoma
MOLT-4 leukemia = system: MOLT-4 leukemia
HOP-62 NSCLC = system: HOP-62 NSCLC
DU-145 prostate = system: DU-145 prostate
M14 melanoma = system: M14 melanoma
ACHN renal = system: ACHN renal
SN12C renal = system: SN12C renal
KM12 colon = system: KM12 colon
OVCAR-5 ovarian = system: OVCAR-5 ovarian
SK-MEL-28 melanoma = system: SK-MEL-28 melanoma
SK-MEL-2 melanoma = system: SK-MEL-2 melanoma
SF-268 CNS = system: SF-268 CNS
786-0 renal = system: 786-0 renal
MDA-MB-231 breast = system: MDA-MB-231 breast
SNB-19 CNS = system: SNB-19 CNS
LOX IMVI melanoma = system: LOX IMVI melanoma
HS 578T breast = system: HS 578T breast
HL-60(TB) leukemia = system: HL-60(TB) leukemia
OVCAR-4 ovarian = system: OVCAR-4 ovarian
MALME-3M melanoma = system: MALME-3M melanoma
NCI/ADR-RES ovarian = system: NCI/ADR-RES ovarian
HT29 colon = system: HT29 colon
SNB-75 CNS = system: SNB-75 CNS
PC-3 prostate = system: PC-3 prostate
MDA-MB-435 = system: MDA-MB-435
HCC-2998 colon = system: HCC-2998 colon
T-47D breast = system: T-47D breast
NCI-H460 lung = system: NCI-H460 lung
IGROV1 ovarian = system: IGROV1 ovarian
CAKI-1 renal = system: CAKI-1 renal
NCI-H522 lung = system: NCI-H522 lung
SF-539 CNS = system: SF-539 CNS
COLO 205 colon = system: COLO 205 colon
A498 renal = system: A498 renal
MDA-N = system: MDA-N
HOP-92 NSCLC = system: HOP-92 NSCLC
NCI-H23 lung = system: NCI-H23 lung
UACC-62 melanoma = system: UACC-62 melanoma
RPMI-8226 leukemia = system: RPMI-8226 leukemia
SR leukemia = system: SR leukemia

COc1ccc(/C=C2\N=C3N(Cc4ccccc4)C=C(N)N3C2=O)cc1
TGI (CCRF-CEM leukemia): > 100 µM | TGI (UO-31 renal): > 100 µM | TGI (UACC-257 melanoma): > 100 µM | TGI (U251 CNS): 92.3 µM | TGI (BT-549 breast): > 100 µM | TGI (OVCAR-3 ovarian): > 100 µM | TGI (NCI-H226 lung): > 100 µM | TGI (SW-620 colon): > 100 µM | TGI (TK-10 renal): > 100 µM | TGI (MCF7 breast): > 100 µM | TGI (HCT-116 colon): > 100 µM | TGI (RXF 393 renal): > 100 µM | TGI (A549 NSCLC): > 100 µM | TGI (OVCAR-8 ovarian): > 100 µM | TGI (SK-OV-3 ovarian): > 100 µM | TGI (EKVX NSCLC): > 100 µM | TGI (SF-295 CNS): > 100 µM | TGI (K-562 leukemia): > 100 µM | TGI (HCT-15 colon): > 100 µM | TGI (SK-MEL-5 melanoma): > 100 µM | TGI (MOLT-4 leukemia): > 100 µM | TGI (HOP-62 NSCLC): > 100 µM | TGI (DU-145 prostate): > 100 µM | TGI (M14 melanoma): > 100 µM | TGI (ACHN renal): > 100 µM | TGI (SN12C renal): > 100 µM | TGI (KM12 colon): > 100 µM | TGI (OVCAR-5 ovarian): > 100 µM | TGI (SK-MEL-28 melanoma): > 100 µM | TGI (SK-MEL-2 melanoma): > 100 µM | TGI (SF-268 CNS): > 100 µM | TGI (786-0 renal): > 100 µM | TGI (MDA-MB-231 breast): > 100 µM | TGI (SNB-19 CNS): 48.2 µM | TGI (LOX IMVI melanoma): > 100 µM | TGI (HS 578T breast): 73 µM | TGI (HL-60(TB) leukemia): > 100 µM | TGI (OVCAR-4 ovarian): > 100 µM | TGI (MALME-3M melanoma): > 100 µM | TGI (NCI/ADR-RES ovarian): > 100 µM | TGI (HT29 colon): > 100 µM | TGI (SNB-75 CNS): 50.7 µM | TGI (PC-3 prostate): > 100 µM | TGI (MDA-MB-435): > 100 µM | TGI (HCC-2998 colon): > 100 µM | TGI (T-47D breast): > 100 µM | TGI (NCI-H460 lung): > 100 µM | TGI (IGROV1 ovarian): > 100 µM | TGI (CAKI-1 renal): > 100 µM | TGI (NCI-H522 lung): > 100 µM | TGI (SF-539 CNS): > 100 µM | TGI (COLO 205 colon): > 100 µM | TGI (A498 renal): > 100 µM | TGI (MDA-N): > 100 µM | TGI (HOP-92 NSCLC): > 100 µM | TGI (NCI-H23 lung): > 100 µM | TGI (UACC-62 melanoma): > 100 µM

COC(=O)c1c2c(cc3c1CC1(Cc4cc5c(cc4C1)CCCC5)C3)CCCC2
TGI (CCRF-CEM leukemia): > 100 µM | TGI (UO-31 renal): > 100 µM | TGI (UACC-257 melanoma): > 100 µM | TGI (U251 CNS): > 100 µM | TGI (OVCAR-3 ovarian): > 100 µM | TGI (RPMI-8226 leukemia): > 100 µM | TGI (TK-10 renal): > 100 µM | TGI (MCF7 breast): > 100 µM | TGI (HCT-116 colon): 28.6 µM | TGI (RXF 393 renal): 67.3 µM | TGI (A549 NSCLC): > 100 µM | TGI (OVCAR-8 ovarian): > 100 µM | TGI (SK-OV-3 ovarian): > 100 µM | TGI (EKVX NSCLC): > 100 µM | TGI (SF-295 CNS): > 100 µM | TGI (K-562 leukemia): > 100 µM | TGI (HCT-15 colon): > 100 µM | TGI (SK-MEL-5 melanoma): > 100 µM | TGI (MOLT-4 leukemia): > 100 µM | TGI (HOP-62 NSCLC): > 100 µM | TGI (M14 melanoma): > 100 µM | TGI (ACHN renal): > 100 µM | TGI (SN12C renal): > 100 µM | TGI (KM12 colon): > 100 µM | TGI (OVCAR-5 ovarian): > 100 µM | TGI (SK-MEL-2 melanoma): > 100 µM | TGI (786-0 renal): > 100 µM | TGI (MDA-MB-231 breast): > 100 µM | TGI (LOX IMVI melanoma): > 100 µM | TGI (SR leukemia): > 100 µM | TGI (HS 578T breast): > 100 µM | TGI (HL-60(TB) leukemia): > 100 µM | TGI (OVCAR-4 ovarian): > 100 µM | TGI (MALME-3M melanoma): > 100 µM | TGI (NCI/ADR-RES ovarian): > 100 µM | TGI (HT29 colon): > 100 µM | TGI (PC-3 prostate): > 100 µM | TGI (MDA-MB-435): > 100 µM | TGI (HCC-2998 colon): > 100 µM | TGI (T-47D breast): > 100 µM | TGI (IGROV1 ovarian): > 100 µM | TGI (NCI-H522 lung): > 100 µM | TGI (SF-539 CNS): > 100 µM | TGI (COLO 205 colon): > 100 µM | TGI (A498 renal): > 100 µM | TGI (MDA-N): > 100 µM | TGI (HOP-92 NSCLC): > 100 µM | TGI (NCI-H23 lung): > 100 µM | TGI (UACC-62 melanoma): > 100 µM
